Laboratory results: patent US6407103B2, “Indeno [1,2-c] pyrazol-4-ones and their uses” (Bristol-Myers Squibb Pharma Company, priority 1998, dated 2002)

| SMILES | melting point |
| --- | --- |
| CC(C)(C)OC(=O)N1CCCC(C(=O)N2CCC(c3[nH]nc4c3C(=O)c3c(NC(=O)NN5CCOCC5)cccc3-4)CC2)C1 (centres unmarked) [Example CCLXXXIX, 3-(1(1-(t-butoxycarbonyl)piperidin-3-ylcarbonyl)piperidin-4-yl)-5-(morpholinocarbamoylamino)indeno[1,2-c]pyrazol-4-one] | 196 °C |
| CC(C)(C)OC(=O)N[C@H]1CC[C@H](C(=O)N2CCC(c3[nH]nc4c3C(=O)c3c(NC(=O)NN5CCOCC5)cccc3-4)CC2)CC1 [Example CCLXXXVI, 3-(1-(trans-4-(t-butoxycarbonylamino)cyclohexylcarbonyl)piperidin-4-yl)-5-(morpholinocarbamoylamino)indeno[1,2-c]pyrazol-4-one] | 178 °C |
| CC(C)(C)OC(=O)N1CCN(c2ccc(-c3[nH]nc4c3C(=O)c3c(NC(=O)NN5CCOCC5)cccc3-4)cc2)CC1 [Example CCX, 3-(4-(4-t-butoxycarbonylpiperazino)phenyl)-5-(morpholinocarbamoylamino)indeno[1,2-c]pyrazol-4-one] | 242 °C |
| CC(C)(C)OC(=O)Nc1ccc(C(=O)N2CCC(c3[nH]nc4c3C(=O)c3c(NC(=O)NN5CCOCC5)cccc3-4)CC2)cc1 [Example CCXCIX, 3-(1-(4-(t-butoxycarbonylamino)phenylcarbonyl)piperidin-4-yl)-5-(morpholinocarbamoylamino)indeno[1,2-c]pyrazol-4-one] | 212 °C |
| CC(C)(C)OC(=O)Nc1ccc(CC(=O)N2CCC(c3[nH]nc4c3C(=O)c3c(NC(=O)NN5CCOCC5)cccc3-4)CC2)cc1 [Example CCXCVI, 3-(1-(4-(t-butoxycarbonylamino)benzylcarbonyl)piperidin-4-yl)-5-(morpholinocarbamoylamino)indeno[1,2-c]pyrazol-4-one] | 177 °C |
| NC(=O)Nc1cccc2c1C(=O)c1c-2n[nH]c1-c1csc(Cl)c1 [Example CI, 3-(5-chloro-3-thienyl)-5-(carbamoylamino)indeno[1,2-c]pyrazol-4-one] | > 300 °C |
| Cc1cc(-c2[nH]nc3c2C(=O)c2c(NC(N)=O)cccc2-3)c(C)s1 [Example CII, 3-(2,5-dimethyl-3-thienyl)-5-(carbamoylamino)indeno[1,2-c]pyrazol-4-one] | > 280 °C |
| NC(=O)Nc1cccc2c1C(=O)c1c-2n[nH]c1-c1ccco1 [Example CIII, 3-(2-furanyl)-5-(carbamoylamino)indeno[1,2-c]pyrazol-4-one] | 278 °C |
| Cn1ccc(-c2[nH]nc3c2C(=O)c2c(NC(N)=O)cccc2-3)c1 [Example CXII, 3-(1-methyl-3-pyrrolyl)-5-(carbamoylamino)indeno[1,2-c]pyrazol-4-one] | > 300 °C |
| CC(C)c1[nH]nc2c1C(=O)c1c(NC(=O)CN3CCC(C(N)=O)CC3)cccc1-2 [Example CXV, 3-(i-propyl)-5-((4-carbamoylpiperidino)acetamido)indeno [1,2-c]pyrazol-4-one] | 224 °C |
| CCc1[nH]nc2c1C(=O)c1c(NC(=O)CN3CCC(CN)CC3)cccc1-2 [Example CXVII, 3-(ethyl)-5-(4-(aminomethyl)piperidinoacetamido)indeno [1,2-c]pyrazol-4-one] | 174 °C |
| CC(C)c1[nH]nc2c1C(=O)c1c(NC(=O)CN3CCC(CN)CC3)cccc1-2 [Example CXVIII, 3-(i-propyl)-5-(4-(aminomethyl)piperidinoacetamido)indeno [1,2-c]pyrazol-4-one] | 218 °C |
| CC(C)c1[nH]nc2c1C(=O)c1c(NC(=O)NN3CCN(C)CC3)cccc1-2 [Example CXXI, 3-(i-propyl)-5-((4-methylpiperazino)carbamoylamino)indeno [1,2-c]pyrazol-4-one] | 231 °C |
| CCOC(=O)c1ccc(-c2[nH]nc3c2C(=O)c2c(NC(=O)NN4CCN(C)CC4)cccc2-3)s1 [Example CXXII, 3-(5-carboethoxy-2-thienyl)-5-((4-methylpiperazino)carbamoylamino)indeno [1,2-c]pyrazol-4-one] | 249 °C |
| CN1CCN(NC(=O)Nc2cccc3c2C(=O)c2c-3n[nH]c2-c2ccc(C(=O)O)s2)CC1 [Example CXXIII, 3-(5-carboxyl-2-thienyl)-5-((4-methylpiperazino)carbamoylamino)indeno [1,2-c]pyrazol-4-one] | 270 °C |
| Cc1cc(-c2[nH]nc3c2C(=O)c2c(NC(=O)NN4CCN(C)CC4)cccc2-3)c(C)s1 [Example CXXIV, 3-(2,5-dimethyl-3-thienyl)-5-((4-methylpiperazino)carbamoylamino)indeno [1,2-c]pyrazol-4-one] | 250 °C |
| COc1ccc(-c2[nH]nc3c2C(=O)c2c(NC(C)=O)cccc2-3)cc1 [Example I, 3-(4-methoxyphenyl)-5-(acetamido)indeno[1,2-c]pyrazol-4-one] | 268 °C |
| COc1ccc(-c2[nH]nc3c2C(=O)c2c(NC(=O)C4CC4)cccc2-3)cc1 [Example III, 3-(4-methoxyphenyl)-5-(cyclopropanecarboxamido)indeno[1,2-c]pyrazol-4-one] | 289 °C |
| CCCC(=O)Nc1cccc2c1C(=O)c1c-2n[nH]c1-c1ccc(OC)cc1 [Example IX, 3-(4-methoxyphenyl)-5-(butanamido)indeno[1,2-c]pyrazol-4-one] | 282 °C |

Other lines, results leading:

| melting point | SMILES |
| --- | --- |
| > 300 °C | O=CNc1cccc2c1C(=O)c1c-2n[nH]c1-c1ccncc1 [Example L, 3-(4-pyridyl)-5-(formamido)indeno [1,2-c]pyrazol-4-one] |
| > 300 °C | CN(C)c1ccc(-c2[nH]nc3c2C(=O)c2c(NC(=O)CN4CCOCC4)cccc2-3)cc1 [Example LV, 3-(4-(N,N-dimethylamino)phenyl)-5-(morpholinoacetamido)indeno[1,2-c]pyrazol-4-one] |
| > 300 °C | CC(=O)Nc1cccc2c1C(=O)c1c-2n[nH]c1-c1ccc(N2CCOCC2)cc1 [Example LVIII, 3-(4-morpholinophenyl)-5-(acetamido)indeno[1,2-c]pyrazol-4-one] |
| 294 °C | CCc1ccc(-c2[nH]nc3c2C(=O)c2c(NC(C)=O)cccc2-3)cc1 [Example LXI, 3-(4-ethylphenyl)-5-(acetamido)indeno[1,2-c]pyrazol-4-one] |
| > 300 °C | COc1ccc(-c2[nH]nc3c2C(=O)c2c(NC(N)=O)cccc2-3)cc1 [Example LXIII, 3-(4-methoxyphenyl)-5-(carbamoylamino)indeno[1,2-c]pyrazol-4-one] |
| > 300 °C | CNC(=O)Nc1cccc2c1C(=O)c1c-2n[nH]c1-c1ccc(OC)cc1 [Example LXV, 3-(4-methoxyphenyl)-5-((methylcarbamoyl)amino)indeno[1,2-c]pyrazol-4-one] |
| > 300 °C | COc1ccc(-c2[nH]nc3c2C(=O)c2c(NC(=O)NN4CCOCC4)cccc2-3)cc1 [Example LXVI, 3-(4-methoxyphenyl)-5-((morpholinocarbamoyl)amino)indeno[1,2-c]pyrazol-4-one] |
| > 300 °C | COc1ccc(-c2[nH]nc3c2C(=O)c2c(NC(=O)NN4CCN(C)CC4)cccc2-3)cc1 [Example LXVIII, 3-(4-methoxyphenyl)-5-((4-methylpiperazinocarbamoyl)amino)indeno[1,2-c]pyrazol-4-one] |
| > 300 °C | COc1ccc(-c2[nH]nc3c2C(=O)c2c(NC(=O)CN4CCN(c5ccccn5)CC4)cccc2-3)cc1 [Example LXX, 3-(4-methoxyphenyl)-5-(4-(2-pyridyl)piperazinoacetamido)indeno[1,2-c]pyrazol-4-one] |
| > 300 °C | COc1ccc(-c2[nH]nc3c2C(=O)c2c(NC(=O)CN4CCN(CCN)CC4)cccc2-3)cc1 [Example LXXI, 3-(4-methoxyphenyl)-5-(4-(aminoethyl)piperazinoacetamido)indeno[1,2-c]pyrazol-4-one] |
| > 300 °C | COc1ccc(-c2[nH]nc3c2C(=O)c2c(NC(=O)CN4CCC(C(N)=O)CC4)cccc2-3)cc1 [Example LXXII, 3-(4-methoxyphenyl)-5-(4-carbamoylpiperidinoacetamido)indeno[1,2-c]pyrazol-4-one] |
| > 300 °C | COc1ccc(-c2[nH]nc3c2C(=O)c2c(NC(=O)CN4CCC(O)CC4)cccc2-3)cc1 [Example LXXIII, 3-(4-methoxyphenyl)-5-(4-hydroxypiperidinoacetamido)indeno[1,2-c]pyrazol-4-one] |
| > 300 °C | CN1CCN(CC(=O)Nc2cccc3c2C(=O)c2c-3n[nH]c2-c2ccc(N(C)C)cc2)CC1 [Example LXXVIII, 3-(4-(dimethylamino)phenyl)-5-((4-methylpiperazino)acetamido)indeno[1,2-c]pyrazol-4-one] |
| 267 °C | CN(C)c1ccc(-c2[nH]nc3c2C(=O)c2c(NC(=O)CN4CCC(O)CC4)cccc2-3)cc1 [Example LXXX, 3-(4-(N,N-dimethylamino)phenyl)-5-(4-hydroxypiperidinoacetamido)indeno[1,2-c]pyrazol-4-one] |
| 258 °C | O=C(CN1CCOCC1)Nc1cccc2c1C(=O)c1c-2n[nH]c1-c1ccc(N2CCOCC2)cc1 [Example LXXXI, 3-(4-morpholinophenyl)-5-(morpholinoacetamido)indeno[1,2-c]pyrazol-4-one] |
| 245 °C | O=C(CN1CCC(O)CC1)Nc1cccc2c1C(=O)c1c-2n[nH]c1-c1ccc(N2CCOCC2)cc1 [Example LXXXIII, 3-(4-(4-morpholinyl)phenyl)-5-((4-hydroxy-1-piperidinyl)acetamido)indeno[1,2-c]pyrazol-4-one] |
| 240 °C | NCC1CCN(CC(=O)Nc2cccc3c2C(=O)c2c-3n[nH]c2-c2ccc(N3CCOCC3)cc2)CC1 [Example LXXXIV, 3-(4-morpholinophenyl)-5-(4-(aminomethyl)piperidinoacetamido)indeno[1,2-c]pyrazol-4-one] |
| > 300 °C | CN1CCN(NC(=O)Nc2cccc3c2C(=O)c2c-3n[nH]c2-c2ccc(N(C)C)cc2)CC1 [Example LXXXV, 3-(4-(N,N-dimethylamino)phenyl)-5-(4-methylpiperazinocarbamoylamino)indeno[1,2-c]pyrazol-4-one] |
| > 300 °C | COc1ccc(-c2[nH]nc3c2C(=O)c2c(NC(=S)NN4CCN(C)CC4)cccc2-3)cc1 [Example LXXXVI, 3-(4-methoxyphenyl)-5-((4-methylpiperazino)thionocarbamoylamino)indeno[1,2-c]pyrazol-4-one] |
